Experimental findings from patent publication US20230093099A1, “COMPOUNDS AND METHODS OF TREATING CANCERS” (CULLGEN (SHANGHAI), INC., priority 2019, published 2023) are described below.

SMILES strings stand for the structures. Bounds are passed on as bounds.

This assay concerns RS4;11 cells. Put plainly: Cell viability assay (CellTiter-Glo) in RS4;11 cells. It is filed as cell-based. The note with it: Homo sapiens, 72 h; RS4;11 cells; cell viability, 3 days, CellTiter-Glo; read-out: IC50. Summed up: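 Three-day compound treatment of RS4;11 ALL cells (5000/well, 3-fold dilution series of 8 or 12 points), with IC50 from a nonlinear least-squares fit to CellTiter-Glo viability data.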
As to `Cc1ncsc1-c1ccc(CNC(=O)[C@@H]2C[C@@H](O)CN2C(=O)[C@@H](NC(=O)CCCCCCCC(=O)N2CCC(n3cc(-c4cnc5cccc(-c6cc(F)c(CN7CCOCC7)c(F)c6)c5n4)cn3)CC2)C(C)(C)C)cc1` [JA-051, (2S,4R)-1-[(2S)-2-[[9-[4-[4-[8-[3,5-Difluoro-4-(morpholinomethyl)phenyl]quinoxalin-2-yl]pyrazol-1-yl]-1-piperidyl]-9-oxo-nonanoyl]amino]-3,3-dimethyl-butanoyl]-4-hydroxy-N-[[4-(4-methylthiazol-5-yl)phenyl]methyl]pyrrolidine-2-carboxamide], the half-maximal inhibitory concentration (IC50) is 4.64 µM.
For the compound `Cc1ncsc1-c1ccc(CNC(=O)[C@@H]2C[C@@H](O)CN2C(=O)[C@@H](NC(=O)CCCCCCC(=O)N2CCC(n3cc(-c4cnc5cccc(-c6cc(F)c(CN7CCOCC7)c(F)c6)c5n4)cn3)CC2)C(C)(C)C)cc1` [JA-052, (2S,4R)-1-[1 (2S)-2-[[8-[4-[4-[8-[3,5-Difluoro-4-(morpholinomethyl)phenyl]quinoxalin-2-yl]pyrazol-1-yl]-1-piperidyl]-8-oxo-octanoyl]amino]-3,3-dimethyl-butanoyl]-4-hydroxy-N-[[14-(4-methylthiazol-5-yl)phenyl]methyl]pyrrolidine-2-carboxamide], the IC50 was over 10 µM.
As to `Cc1ncsc1-c1ccc(CNC(=O)[C@@H]2C[C@@H](O)CN2C(=O)[C@@H](NC(=O)COCCOCCOCC(=O)N2CCC(n3cc(-c4cnc5cccc(-c6cc(F)c(CN7CCOCC7)c(F)c6)c5n4)cn3)CC2)C(C)(C)C)cc1` [JA-053, (2S,4R)-1-[(2S)-2-[[2-[2-[2-[2-[4-[4-[8-[3,5-Difluoro-4-(morpholinomethyl)phenyl]quinoxalin-2-yl]pyrazol-1-yl]-1-piperidyl]-2-oxo-ethoxy]ethoxy]ethoxy]acetyl]amino]-3,3-dimethyl-butanoyl]-4-hydroxy-N-[[4-(4-methylthiazol-5-yl)phenyl]methyl]pyrrolidine-2-carboxamide], the IC50 is over 10 µM.
As for `Cc1ncsc1-c1ccc(CNC(=O)[C@@H]2C[C@@H](O)CN2C(=O)[C@@H](NC(=O)COCCOCC(=O)N2CCC(n3cc(-c4cnc5cccc(-c6cc(F)c(CN7CCOCC7)c(F)c6)c5n4)cn3)CC2)C(C)(C)C)cc1` [JA-054, (2S,4R)-1-[(2S)-2-[[2-[2-[2-[4-[4-[8-[3,5-Difluoro-4-(morpholinomethyl)phenyl]quinoxalin-2-yl]pyrazol-1-yl]-1-piperidyl]-2-oxo-ethoxy]ethoxy]acetyl]amino]-3,3-dimethyl-butanoyl]-4-hydroxy-N-[[4-(4-methylthiazol-5-yl)phenyl]methyl]pyrrolidine-2-carboxamide], the IC50 is over 10 µM.
The same measure for `Cc1ncsc1-c1ccc(CNC(=O)[C@@H]2C[C@@H](O)CN2C(=O)[C@@H](NC(=O)COCCOCCOCCOCCOCC(=O)N2CCC(n3cc(-c4cnc5cccc(-c6cc(F)c(CN7CCOCC7)c(F)c6)c5n4)cn3)CC2)C(C)(C)C)cc1` [JA-055, (2S,4R)-1-[(2S)-2-[[2-[2-[2-[2-[2-[2-[4-[4-[8-[3,5-Difluoro-4-(morpholinomethyl)phenyl]quinoxalin-2-yl]pyrazol-1-yl]-1-piperidyl]-2-oxo-ethoxy]ethoxy]ethoxy]ethoxy]ethoxy]acetyl]amino]-3,3-dimethyl-butanoyl]-4-hydroxy-N-[[4-(4-methylthiazol-5-yl)phenyl]methyl]pyrrolidine-2-carboxamide]: over 10 µM; for `Cc1ncsc1-c1ccc(CNC(=O)[C@@H]2C[C@@H](O)CN2C(=O)[C@@H](NC(=O)CCOCCOCCC(=O)N2CCC(n3cc(-c4cnc5cccc(-c6cc(F)c(CN7CCOCC7)c(F)c6)c5n4)cn3)CC2)C(C)(C)C)cc1` [JA-056, (2S,4R)-1-[(2S)-2-[3-[2-[3-[4-[4-[8-[3,5-Difluoro-4-(morpholinomethyl)phenyl]quinoxalin-2-yl]pyrazol-1-yl]-1-piperidyl]-3-oxo-propoxy]ethoxy]propanoylamino]-3,3-dimethyl-butanoyl]-4-hydroxy-N-[[4-(4-methylthiazol-5-yl)phenyl]methyl]pyrrolidine-2-carboxamide]: over 10 µM; for `Cc1ncsc1-c1ccc(CNC(=O)[C@@H]2C[C@@H](O)CN2C(=O)[C@@H](NC(=O)COCC(=O)N2CCC(n3cc(-c4cnc5cccc(-c6cc(F)c(CN7CCOCC7)c(F)c6)c5n4)cn3)CC2)C(C)(C)C)cc1` [JA-057, (2S,4R)-1-[(2S)-2-[[2-[2-[4-[4-[8-[3,5-Difluoro-4-(morpholinomethyl)phenyl]quinoxalin-2-yl]pyrazol-1-yl]-1-piperidyl]-2-oxo-ethoxy]acetyl]amino]-3,3-dimethyl-butanoyl]-4-hydroxy-N-[[4-(4-methylthiazol-5-yl)phenyl]methyl]pyrrolidine-2-carboxamide]: over 10 µM.
`Cc1ncsc1-c1ccc(CNC(=O)[C@@H]2C[C@@H](O)CN2C(=O)[C@@H](NC(=O)CCOCCC(=O)N2CCC(n3cc(-c4cnc5cccc(-c6cc(F)c(CN7CCOCC7)c(F)c6)c5n4)cn3)CC2)C(C)(C)C)cc1` [JA-058, (2S,4R)-1-[(2S)-2-[3-[3-[4-[4-[8-[3,5-Difluoro-4-(morpholinomethyl)phenyl]quinoxalin-2-yl]pyrazol-1-yl]-1-piperidyl]-3-oxo-propoxy]propanoylamino]-3,3-dimethyl-butanoyl]-4-hydroxy-N-[[4-(4-methylthiazol-5-yl)phenyl]methyl]pyrrolidine-2-carboxamide]: the 50% inhibitory concentration (IC50) is 2.52 µM.
The same measure for `Cc1ncsc1-c1ccc(CNC(=O)[C@@H]2C[C@@H](O)CN2C(=O)[C@@H](NC(=O)CCCCCCCCCC(=O)N2CCC(n3cc(-c4cnc5cccc(-c6cc(F)c(CN7CCOCC7)c(F)c6)c5n4)cn3)CC2)C(C)(C)C)cc1` [JA-059, (2S,4R)-1-[(2S)-2-[[11-[4-[4-[8-[3,5-Difluoro-4-(morpholinomethyl)phenyl]quinoxalin-2-yl]pyrazol-1-yl]-1-piperidyl]-11-oxo-undecanoyl]amino]-3,3-dimethyl-butanoyl]-4-hydroxy-N-[[4-(4-methylthiazol-5-yl)phenyl]methyl]pyrrolidine-2-carboxamide]: over 10 µM; for `Cc1ncsc1-c1ccc(CNC(=O)[C@@H]2C[C@@H](O)CN2C(=O)[C@@H](NC(=O)CCC(=O)N2CCC(n3cc(-c4cnc5cccc(-c6cc(F)c(CN7CCOCC7)c(F)c6)c5n4)cn3)CC2)C(C)(C)C)cc1` [JA-060, (2S,4R)-1-[(2S)-2-[[4-[4-[4-[8-[3,5-Difluoro-4-(morpholinomethyl)phenyl]quinoxalin-2-yl]pyrazol-1-yl]-1-piperidyl]-4-oxo-butanoyl]amino]-3,3-dimethyl-butanoyl]-4-hydroxy-N-[[4-(4-methylthiazol-5-yl)phenyl]methyl]pyrrolidine-2-carboxamide]: over 10 µM.
For `Cc1ncsc1-c1ccc(CNC(=O)[C@@H]2C[C@@H](O)CN2C(=O)[C@@H](NC(=O)CCOCCOCCOCCOCCC(=O)N2CCC(n3cc(-c4cnc5cccc(-c6cc(F)c(CN7CCOCC7)c(F)c6)c5n4)cn3)CC2)C(C)(C)C)cc1` [JA-061, (2S,4R)-1-[(2S)-2-[3-[2-[2-[2-[3-[4-[4-[8-[3,5-Difluoro-4-(morpholinomethyl)phenyl]quinoxalin-2-yl]pyrazol-1-yl]-1-piperidyl]-3-oxo-propoxy]ethoxy]ethoxy]ethoxy]propanoylamino]-3,3-dimethyl-butanoyl]-4-hydroxy-N-[[4-(4-methylthiazol-5-yl)phenyl]methyl]pyrrolidine-2-carboxamide], the IC50 was over 10 µM.
In the case of `Cc1ncsc1-c1ccc(CNC(=O)[C@@H]2C[C@@H](O)CN2C(=O)[C@@H](NC(=O)CCCCCCC(=O)N2CCN(c3ccc(Nc4nc5cccc(-c6ccc(S(C)(=O)=O)cc6)n5n4)cc3)CC2)C(C)(C)C)cc1` [JA-062, (2S,4R)-1-((S)-3,3-Dimethyl-2-(8-(4-(4-((5-(4-(methylsulfonyl)phenyl)-[1,2,4]triazolo[1,5-a]pyridin-2-yl)amino)phenyl)piperazin-1-yl)-8-oxooctanamido)butanoyl)-4-hydroxy-N-(4-(4-methylthiazol-5-yl)benzyl)pyrrolidine-2-carboxamide], the IC50 was over 10 µM.
As for `Cc1ncsc1-c1ccc(CNC(=O)[C@@H]2C[C@@H](O)CN2C(=O)[C@@H](NC(=O)CCOCCOCCOCCOCCC(=O)N2CCN(c3ccc(Nc4nc5cccc(-c6ccc(S(C)(=O)=O)cc6)n5n4)cc3)CC2)C(C)(C)C)cc1` [JA-063, (2S,4R)-1-((S)-2-(tert-Butyl)-19-(4-(4-((5-(4-(methylsulfonyl)phenyl)-[1,2,4]triazolo[1,5-a]pyridin-2-yl)amino)phenyl)piperazin-1-yl)-4,19-dioxo-7,10,13,16-tetraoxa-3-azanonadecanoyl)-4-hydroxy-N-(4-(4-methylthiazol-5-yl)benzyl)pyrrolidine-2-carboxamide], the IC50 was over 10 µM.
`Cc1ncsc1-c1ccc(CNC(=O)[C@@H]2C[C@@H](O)CN2C(=O)[C@@H](NC(=O)COCCOCCOCC(=O)N2CCN(c3ccc(Nc4nc5cccc(-c6ccc(S(C)(=O)=O)cc6)n5n4)cc3)CC2)C(C)(C)C)cc1` [JA-064, (2S,4R)-1-((S)-2-(tert-Butyl)-14-(4-(4-((5-(4-(methylsulfonyl)phenyl)-[1,2,4]triazolo[1,5-a]pyridin-2-yl)amino)phenyl)piperazin-1-yl)-4,14-dioxo-6,9,12-trioxa-3-azatetradecanoyl)-4-hydroxy-N-(4-(4-methylthiazol-5-yl)benzyl)pyrrolidine-2-carboxamide]: the half-inhibitory concentration (IC50) was over 10 µM.
Take `Cc1ncsc1-c1ccc(CNC(=O)[C@@H]2C[C@@H](O)CN2C(=O)[C@@H](NC(=O)CCCCCCCC(=O)N2CCN(c3ccc(Nc4nc5cccc(-c6ccc(S(C)(=O)=O)cc6)n5n4)cc3)CC2)C(C)(C)C)cc1` [JA-065, (2S,4R)-1-((S)-3,3-Dimethyl-2-(9-(4-(4-((5-(4-(methylsulfonyl)phenyl)-[1,2,4]triazolo[1,5-a]pyridin-2-yl)amino)phenyl)piperazin-1-yl)-9-oxononanamido)butanoyl)-4-hydroxy-N-(4-(4-methylthiazol-5-yl)benzyl)pyrrolidine-2-carboxamide]: the 50% inhibitory concentration (IC50) turned out to be 0.872 µM.

One may read the IC50 as the midpoint of a concentration-inhibition curve.
